Laboratory results as given in patent US20250213707A1, “COMPOUND FOR INCREASING EFFICACY OF ONCOLYTIC VIRUSES” (ABLEVIA BIOTECH GMBH, priority 2022, published 2025).

Test system: IgG from human donors (anti-AAV antibodies)
Experiment: Screen for anti-AAV antibodies in human sera, 2452 linear 15-amino-acid AAV peptides on microarrays (Table 1)
Assay type: binding
Design: key to group I: X: the deduplicated aggregate of the respective top 10 peptide hits for each donor was compiled and designated as group I; key to group II: X: the deduplicated aggregate of the respective top 25 peptide hits for each donor was compiled and designated as group II; key to group III: X: the deduplicated aggregate of the respective top 50 peptide hits for each donor was compiled and designated as group III
Conditions: for group I: membership in deduplicated aggregate of top 10 peptide hits for each donor; for group II: membership in deduplicated aggregate of top 25 peptide hits for each donor
Description: 2452 linear peptides derived from the sequences of 16 different AAVs and with a sequence length of 15 amino-acids each were synthesized.
Samples obtained from human donors were screened for antibodies against these AAV-derived peptides immobilized on microarrays. To this end, IgG was prepared from blood obtained from the human donors by protein G purification. Each IgG sample was incubated with the peptide microarrays and Ig binding signals were detected by fluorescence. All antibody binding signals to the peptides on the arrays were background subtracted and ranked for each sample and a deduplicated aggregate of the respective top 250 peptide hits for each donor with the corresponding protein sequence of origin (as obtained from UniProt or other sources) was compiled (designated as group IV). Further, the deduplicated aggregate of the respective top 50 peptide hits for each donor was compiled and designated as group III. Further, the deduplicated aggregate of the respective top 25 peptide hits for each donor was compiled and designated as group II. Finally, the deduplicated aggregate of the respective top 10 peptide hits for each donor was compiled and designated as group I.
Altogether, group I contains 110 distinct peptide hits (assigned to the corresponding AAV vectors in Table 1), group II contains 289 distinct peptide hits, group III contains 428 distinct peptide hits and group IV contains 1271 distinct peptide hits. Evidently, group I is a subset of group II which in turn is a subset of group III which in turn is a subset of group IV. Groups I-IV correspond to the top 4.4%, […], 17.5% and 51.8%, respectively, of all peptides screened.

[1] = human donor IgG binding to linear 15-amino-acid AAV peptides on microarray, fluorescence
[2] = membership in deduplicated aggregate of top 50 peptide hits for each donor, human donor IgG binding to linear 15-amino-acid AAV peptides on microarray, fluorescence
[3] = X = peptide belongs to the deduplicated aggregate of the top 50 peptide hits for each donor, linear 15-amino-acid AAV peptides, IgG binding by fluorescence
[4] = X = peptide in the deduplicated aggregate of the top 50 peptide hits for each donor (top 17.5% of all peptides screened), linear 15-amino-acid AAV peptides on microarrays, human donor IgG, fluorescence

Row | Substance | group I [1] | group II [1] | group III [2] | group III [3] | also measured
1 | SGGSTNDNTYFGYS [SEQ ID NO: 1965] | X | X | X |  | 
2 | 298 (PLGLVESPVKTAPGK; REGION 1..15: note = peptide derived from viral capsid protein) [compound 298] |  |  |  | X | 
3 | 323 (RPVEHSPVEPDSSSG; REGION 1..15: note = peptide derived from viral capsid protein) [compound 323] |  |  |  | X | 
4 | 348 (NHYFGYSTPWGYFDF; REGION 1..15: note = peptide derived from viral capsid protein) [compound 348] |  |  |  | X | 
5 | 291 (KDNVDYSSVMLTSEE; REGION 1..15: note = peptide derived from viral capsid protein) [compound 291] |  |  |  | X | 
6 | 434 (TNPVATEEYGIVADN; REGION 1..15: note = peptide derived from viral capsid protein) [compound 434] |  |  |  |  | group III [4]: X
7 | NPGVAMATHKDDEE [SEQ ID NO: 1957] | X | X | X |  | 
8 | TGDSESVPDPQPIG [SEQ ID NO: 1967] | X | X | X |  | 
9 | 356 (YSTGQVSVEIEWELQ; REGION 1..15: note = peptide derived from viral capsid protein) [compound 356] |  |  |  | X | 
10 | 432 (GSSSGNWHCDSTWLG; REGION 1..15: note = peptide derived from viral capsid protein) [compound 432] |  |  |  |  | group III [4]: X
11 | 300 (TFNQAKLASFITQYS; REGION 1..15: note = peptide derived from viral capsid protein) [compound 300] |  |  |  | X | 
12 | 311 (QGVLPGMVWQDRDVY; REGION 1..15: note = peptide derived from viral capsid protein) [compound 311] |  |  |  | X | 
13 | PLVDQYLYRFVSTN (REGION 1..14: note = peptide derived from viral capsid protein) [SEQ ID NO: 1938] | X | X | X |  | 
14 | YYKSTNVDFAVNTE [SEQ ID NO: 1916] | X | X | X |  | 
15 | 407 (NTPVPADPPTAFNKD; REGION 1..15: note = peptide derived from viral capsid protein) [compound 407] |  |  |  |  | group III [4]: X
16 | 414 (GNGLDKGEPVNAADA; REGION 1..15: note = peptide derived from viral capsid protein) [compound 414] |  |  |  |  | group III [4]: X
17 | 385 (TTSTRTWALPTYNNH; REGION 1..15: note = peptide derived from viral capsid protein) [compound 385] |  |  |  | X | 
18 | 483 (TMSAGGGGPLGDNNQ; REGION 1..15: note = peptide derived from viral capsid protein) [compound 483] |  |  |  |  | group III [4]: X
19 | 340 (FSYTFEDVPFHSSYA; REGION 1..15: note = peptide derived from viral capsid protein) [compound 340] |  |  |  | X | 

Row | Substance | group I [1] | group II [1] | group III [2] | group III [3] | also measured
20 | 380 (SSYAHSQSLDRLMNP; REGION 1..15: note = peptide derived from viral capsid protein) [compound 380] |  |  |  | X | 
21 | 354 (YFDFNRFHCHFSPRD; REGION 1..15: note = peptide derived from viral capsid protein) [compound 354] |  |  |  | X | 
22 | 343 (TFEDVPFHSSYAHSQ; REGION 1..15: note = peptide derived from viral capsid protein) [compound 343] |  |  |  | X | 
23 | 411 (ILIKNTPVPADPPTA; REGION 1..15: note = peptide derived from viral capsid protein) [compound 411] |  |  |  |  | group III [4]: X
24 | 321 (IEKVMITDEEEIRTT; REGION 1..15: note = peptide derived from viral capsid protein) [compound 321] |  |  |  | X | 
25 | GNTSQQQTDRNAFY (REGION 1..14: note = peptide derived from viral capsid protein) [SEQ ID NO: 1897] | X | X | X |  | 
26 | SESVPDPQPLGEPP (REGION 1..14: note = peptide derived from viral capsid protein) [SEQ ID NO: 1922] | X | X | X |  | 
27 | 474 (ENSKRWNPEIQYTNN; REGION 1..15: note = peptide derived from viral capsid protein) [compound 474] |  |  |  |  | group III [4]: X
28 | 361 (YSTPWGYFDFNRFHC; REGION 1..15: note = peptide derived from viral capsid protein) [compound 361] |  |  |  | X | 
29 | 293 (SQMLRTGNFEFSYFE; REGION 1..15: note = peptide derived from viral capsid protein) [compound 293] |  |  |  | X | 
30 | PGAPKPKANQQKQD [SEQ ID NO: 1958] | X | X | X |  | 
31 | NAADAAALEHDKAY [SEQ ID NO: 1956] | X | X | X |  | 
32 | TESVPDPQPIGEPP (REGION 1..14: note = peptide derived from viral capsid protein) [SEQ ID NO: 1929] | X | X | X |  | 
33 | DDEDKFFPMSGVMI (REGION 1..14: note = peptide derived from viral capsid protein) [SEQ ID NO: 1937] | X | X | X |  | 
34 | ADPPTTFSQAKLAS [SEQ ID NO: 1939] | X | X | X |  | 
35 | LQQQNAAPIVGAVN (REGION 1..14: note = peptide derived from viral capsid protein) [SEQ ID NO: 1955] | X | X | X |  | 
36 | 337 (ADNNEGADGVGNSSG; REGION 1..15: note = peptide derived from viral capsid protein) [compound 337] |  |  |  | X | 
37 | 349 (GSQAVGRSSFYCLEY; REGION 1..15: note = peptide derived from viral capsid protein) [compound 349] |  |  |  | X | 
